Where two headings read alike, the source gives them in different places.
Legend:
[1] = system: A549 cell; assay: Evaluation of PGE2 production inhibitory action using A549 cell (IL-1β stimulated); type: cell-based, human; conditions: for IC50: recombinant human IL-1β stimulation, read-out: cell PGE2 production inhibitory activity (IC50 value)
Procedure, shortened: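 A549 cells (human lung cancer) in F-12K with 2% FBS were preincubated with test article for 30 min, then stimulated with IL-1β (1 ng/mL final) for 18 hr at 37 °C; 0.5% DMSO final. Supernatant PGE2 was measured by HTRF against a standard curve; inhibition is relative to vehicle and unstimulated blank wells.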

[2] = molecular target: T1, human mPGES-1 (Homo sapiens, UniProt O14684); assay: Evaluation of human mPGES-1 enzyme inhibitory activity (HTRF measurement of PGE2); type: biochemical; conditions: IC50 value; microsome fraction of CHO-S cells expressing human mPGES-1, PGH2 substrate, PGE2 by HTRF; read-out: humans mPGES-1 enzyme inhibitory activity
T1 construct: made in house; host or cells: Chinese hamster ovary-derived cells (FreeStyle CHO-S), transient transfection of pcDNA3.1(+)/human mPGES-1; microsome fraction
T1 sequence (O14684 1-152): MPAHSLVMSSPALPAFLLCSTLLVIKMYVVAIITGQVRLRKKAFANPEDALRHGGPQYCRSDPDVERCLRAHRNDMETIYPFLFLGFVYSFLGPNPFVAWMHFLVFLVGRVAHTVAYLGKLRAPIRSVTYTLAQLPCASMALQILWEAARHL
Procedure, shortened: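 Enzyme source was a microsome fraction from CHO-S cells transfected with human mPGES-1, diluted to 5 μg/mL protein in reduced GSH (12.5 mmol/L KPB), preincubated with compound for 10 min at room temperature with 2% final DMSO. Reaction started with PGH2 and run 45 seconds at room temperature. PGE2 measured by HTRF.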

SMILES	IC50 ([1]; Homo sapiens, A549, A549 cell) [nM]	IC50 [2] [nM]	inhibition at 0.03 µM ([1]; Homo sapiens, A549 cell, IL-1β stimulation, at the highest concentration given (0.03 μM), read-out: cell PGE2 production inhibitory activity (%), printed in parentheses after the > bound) [%]	IC50 ([1]; A549 cell) [nM]
CC(C)c1cccc(-c2nc(O)nc(-c3cc(CNC(=O)C(C)(C)C(F)F)ccc3Cl)n2)c1 [Example 77]	44	0.8		
CCC[C@@H](C)Oc1ccc(-c2nc(O)nc(-c3cc(CNC(=O)C(C)(C)OC)ccc3Cl)n2)cn1 [Example 78]	9.2	1.2		
CCC[C@@H](C)Oc1ccc(-c2nc(O)nc(-c3cc(CNC(=O)[C@@](C)(OC)C(F)(F)F)ccc3Cl)n2)cn1 [Example 80]	2	2.7		
CCCCCCOc1ccc(-c2nc(O)nc(-c3cc(CNC(=O)C(CC)(CC)OC)ccc3Cl)n2)cn1 [Example 82]	2.2	7.2		
CCCCCCOc1ccc(-c2nc(O)nc(-c3cc(CNC(=O)[C@@](C)(OC)C(F)(F)F)ccc3Cl)n2)cn1 [Example 83]	2.7	5		
CCCCCCOc1ccc(-c2nc(O)nc(-c3cc(CNC(=O)C(C)(C)CF)ccc3Cl)n2)cn1 [Example 84]	6	2		
CCCCCCOc1ccc(-c2nc(O)nc(-c3cc(CNC(=O)C(C)(C)C(F)F)ccc3Cl)n2)cn1 [Example 85]	3.5	4.9		
CCC[C@H](C)Oc1ccc(-c2nc(O)nc(-c3cc(CNC(=O)C(C)(C)C(F)(F)F)ccc3Cl)n2)cn1 [Example 86]	2.1	1.8		
CC(C)(C)c1cc(-c2nc(O)nc(-c3cc(CNC(=O)C(C)(C)C(F)(F)F)ccc3Cl)n2)ccc1Cl [Example 87]	2.9	5.2		
CC(C)c1cc(-c2nc(O)nc(-c3cc(CNC(=O)C(C)(C(F)(F)F)C(F)(F)F)ccc3Cl)n2)ccc1Cl [Example 88]	1.6	19		
CC1(c2cccc(-c3nc(O)nc(-c4cc(CNC(=O)C(C)(C(F)(F)F)C(F)(F)F)ccc4Cl)n3)c2)CC1 [Example 89]	2.5	3.7		
CC(C)c1cccc(-c2nc(O)nc(-c3cc(CNC(=O)C(C)(C(F)(F)F)C(F)(F)F)ccc3Cl)n2)c1 [Example 90]	3.9	2.1		
CC(C)(C)c1cccc(-c2nc(O)nc(-c3cc(CNC(=O)C(C)(C(F)(F)F)C(F)(F)F)ccc3Cl)n2)c1 [Example 91]	4	4.6		
CC(C)c1cccc(-c2nc(O)nc(-c3cc(CNC(=O)C4(CF)CCCC4)ccc3Cl)n2)c1 [Example 92]	90	0.5		
CC(C)(C)c1cccc(-c2nc(O)nc(-c3cc(CNC(=O)C4(CF)CCCC4)ccc3Cl)n2)c1 [Example 93]	30	1.3		
CC1(c2cccc(-c3nc(O)nc(-c4cc(CNC(=O)C5(CF)CCCC5)ccc4Cl)n3)c2)CC1 [Example 94]	59	1		
CC(C)c1cc(-c2nc(O)nc(-c3cc(CNC(=O)C4(CF)CCCC4)ccc3Cl)n2)ccc1Cl [Example 95]	17	1.9		
CC(C)c1cccc(-c2nc(O)nc(-c3cc(CNC(=O)C4(C(F)F)CCCC4)ccc3Cl)n2)c1 [Example 96]	61	0.8		
CC(C)c1cc(-c2nc(O)nc(-c3cc(CNC(=O)C4(C(F)F)CCCC4)ccc3Cl)n2)ccc1Cl [Example 97]	9	3.8		
CC(C)c1cccc(-c2nc(O)nc(-c3cc(CNC(=O)C4(CF)CCCCC4)ccc3Cl)n2)c1 [Example 98]	43	1.2		
CC(C)(C)c1cccc(-c2nc(O)nc(-c3cc(CNC(=O)C4(CF)CCCCC4)ccc3Cl)n2)c1 [Example 99]	11	1.7		
CC1(c2cccc(-c3nc(O)nc(-c4cc(CNC(=O)C5(CF)CCCCC5)ccc4Cl)n3)c2)CC1 [Example 100]	43	0.9		
CC(C)c1cc(-c2nc(O)nc(-c3cc(CNC(=O)C4(CF)CCCCC4)ccc3Cl)n2)ccc1Cl [Example 101]	7.9	2.1		
CCC[C@H](C)Oc1ccc(-c2nc(O)nc(-c3cc(CNC(=O)C(C)(C)OC)ccc3Cl)n2)cn1 [Example 102]	25	1.1		
CCC[C@H](C)Oc1ccc(-c2nc(O)nc(-c3cc(CNC(=O)C(CC)(CC)OC)ccc3Cl)n2)cn1 [Example 103]	6.5	2.4		
CCC[C@H](C)Oc1ccc(-c2nc(O)nc(-c3cc(CNC(=O)C(C)(C)CF)ccc3Cl)n2)cn1 [Example 105]	15	1.5		

SMILES	IC50 ([1]; Homo sapiens, A549, A549 cell) [nM]	IC50 [2] [nM]	inhibition at 0.03 µM ([1]; Homo sapiens, A549 cell, IL-1β stimulation, at the highest concentration given (0.03 μM), read-out: cell PGE2 production inhibitory activity (%), printed in parentheses after the > bound) [%]	IC50 ([1]; A549 cell) [nM]
CCC[C@H](C)Oc1ccc(-c2nc(O)nc(-c3cc(CNC(=O)C4(CF)CCCCC4)ccc3Cl)n2)cn1 [Example 106]	5	3.6		
CC(C)c1cc(-c2nc(O)nc(-c3cc(CNC(=O)C4(C(F)F)CCCCC4)ccc3Cl)n2)ccc1Cl [Example 108]	2.4	2.4		
CCC[C@H](C)Oc1ccc(-c2nc(O)nc(-c3cc(CNC(=O)C4(C(F)F)CCCCC4)ccc3Cl)n2)cn1 [Example 109]	1.8	3.2		
CCC[C@H](C)Oc1ccc(-c2nc(O)nc(-c3cc(CNC(=O)C4(C(F)F)CCCC4)ccc3Cl)n2)cn1 [Example 110]	2.7	3.7		
CC(C)c1cccc(-c2nc(O)nc(-c3cc(CNC(=O)C4(CF)CCCCCC4)ccc3Cl)n2)c1 [Example 111]	54	1.5		
CC(C)(C)c1cccc(-c2nc(O)nc(-c3cc(CNC(=O)C4(CF)CCCCCC4)ccc3Cl)n2)c1 [Example 112]	24	3.3		
CC1(c2cccc(-c3nc(O)nc(-c4cc(CNC(=O)C5(CF)CCCCCC5)ccc4Cl)n3)c2)CC1 [Example 113]	95	1.8		
CC(C)c1cc(-c2nc(O)nc(-c3cc(CNC(=O)C4(CF)CCCCCC4)ccc3Cl)n2)ccc1Cl [Example 114]	13	3.1		
CCC(CC)(CF)C(=O)NCc1ccc(Cl)c(-c2nc(O)nc(-c3ccc(Cl)c(C(C)C)c3)n2)c1 [Example 115]	6.6	1.3		
CCC(CC)(C(=O)NCc1ccc(Cl)c(-c2nc(O)nc(-c3cccc(C(C)C)c3)n2)c1)C(F)F [Example 116]	7.2	1.2		
CCC(CC)(C(=O)NCc1ccc(Cl)c(-c2nc(O)nc(-c3cccc(C(C)(C)C)c3)n2)c1)C(F)F [Example 117]	4.2	1.6		
CCC(CC)(C(=O)NCc1ccc(Cl)c(-c2nc(O)nc(-c3cccc(C4(C)CC4)c3)n2)c1)C(F)F [Example 118]	17	0.4		
CCC(CC)(C(=O)NCc1ccc(Cl)c(-c2nc(O)nc(-c3ccc(Cl)c(C(C)C)c3)n2)c1)C(F)F [Example 119]	3	1.8		
CC(C)c1cccc(-c2nc(O)nc(-c3cc(CNC(=O)C4(C(F)F)CCCCCC4)ccc3Cl)n2)c1 [Example 120]	> 30	1.8	43	
CC(C)(C)c1cccc(-c2nc(O)nc(-c3cc(CNC(=O)C4(C(F)F)CCCCCC4)ccc3Cl)n2)c1 [Example 121]	7.9	3.3		
CC1(c2cccc(-c3nc(O)nc(-c4cc(CNC(=O)C5(C(F)F)CCCCCC5)ccc4Cl)n3)c2)CC1 [Example 122]	19	1.8		
CCC[C@@H](C)Oc1ccc(-c2nc(O)nc(-c3cc(CNC(=O)C(CC)(CC)C(F)F)ccc3Cl)n2)cn1 [Example 123]	1.5	4		
CCC[C@@H](C)Oc1ccc(-c2nc(O)nc(-c3cc(CNC(=O)C(CC)(CC)CF)ccc3Cl)n2)cn1 [Example 124]	2.5	2.6		
CCC[C@@H](C)Oc1ccc(-c2nc(O)nc(-c3cc(CNC(=O)C4(C(F)(F)F)CCCC4)ccc3Cl)n2)cn1 [Example 125]	1.6	6		
CCC[C@@H](C)Oc1ccc(-c2nc(O)nc(-c3cc(CNC(=O)C4(C(F)F)CCCC4)ccc3Cl)n2)cn1 [Example 126]	2.5	3.1		
CCC[C@@H](C)Oc1ccc(-c2nc(O)nc(-c3cc(CNC(=O)C4(C(F)F)CCCCC4)ccc3Cl)n2)cn1 [Example 127]	0.9	2.4		
CCC[C@@H](C)Oc1ccc(-c2nc(O)nc(-c3cc(CNC(=O)C4(CF)CCCCC4)ccc3Cl)n2)cn1 [Example 128]	1.3	2.2		
CCC[C@H](C)Oc1ccc(-c2nc(O)nc(-c3cc(CNC(=O)C(CC)(CC)C(F)F)ccc3Cl)n2)cn1 [Example 130]	1.2	3.8		
CCC(OC)(C(=O)NCc1ccc(Cl)c(-c2nc(O)nc(-c3cccc(C(C)(C)C)c3)n2)c1)C(F)(F)F (stereo not drawn) [Example 133]		1.4		2.4
CCC(OC)(C(=O)NCc1ccc(Cl)c(-c2nc(O)nc(-c3cccc(C(C)(C)C)c3)n2)c1)C(F)(F)F (stereo not drawn) [Example 135]		2		5.4
CCC(OC)(C(=O)NCc1ccc(Cl)c(-c2nc(O)nc(-c3cccc(C4(C)CC4)c3)n2)c1)C(F)(F)F (stereo not drawn) [Example 136]	10	1.2		

Source: patent US12492182B2, “Hydroxytriazine compounds and pharmaceutical use thereof” (Japan Tobacco Inc., priority 2015, dated 2025)
